From PubChem BioAssay AID1259411 (Chemical Carcinogenesis Research Information System (CCRIS), 2018)
Calls of active or inactive are those of the source. No rule for the calls is given here.

Test system: rodent carcinogenicity bioassays, tumor incidence
Experiment: CCRIS carcinogenicity studies
Method in brief: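 NCI-built, expert-reviewed records of carcinogenicity and related test outcomes (mutagenicity, tumor promotion/inhibition) compiled from published and report sources, historical span 1985-2011, not updated.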

Compound: CC(C)CCC[C@@H](C)[C@H]1CC[C@H]2[C@@H]3CC=C4C[C@@H](OC(=O)Cc5ccc(N(CCCl)CCCl)cc5)CC[C@]4(C)[C@H]3CC[C@]12C
- carcinogen call (Species: MOUSE, Strain/Sex: B6C3F1/FEMALE, Route: GAVAGE, Dose: 0, 7, 15, 30 MG/KG 3/WK FOR 52-88 WK (STUDY DURATION: 62-104 WK), Dose: 0, 7, 15, 30 MG/KG 3/WK FOR 52-88 WK (STUDY DURATION: 62-104 WK), Tumor Site: Type of Lesion: LUNG: ALVEOLAR/BRONCHIOLAR ADENOMA, CARCINOMA, MYOCARDIUM: SARCOMA, OVARIES: TUBULAR ADENOMA, HEMATOPOIETIC SYSTEM (LEUK, Tumor Site: Type of Lesion: LUNG: ALVEOLAR/BRONCHIOLAR ADENOMA, CARCINOMA, MYOCARDIUM: SARCOMA, OVARIES: TUBULAR ADENOMA, HEMATOPOIETIC SYSTEM (LEUK): active; positive
- carcinogen call (Species: MOUSE, Strain/Sex: B6C3F1/MALE, Route: GAVAGE, Dose: 0, 7, 15, 30 MG/KG 3/WK FOR 52-102 WK (STUDY DURATION: 74-104 WK), Dose: 0, 7, 15, 30 MG/KG 3/WK FOR 52-102 WK (STUDY DURATION: 74-104 WK), Tumor Site: Type of Lesion: LUNG: ALVEOLAR/BRONCHIOLAR ADENOMA, CARCINOMA, HEMATOPOIETIC SYSTEM (LEUKEMIA), LYMPHATIC SYSTEM: LYMPHOMA, MYOCARDIUM:, Tumor Site: Type of Lesion: LUNG: ALVEOLAR/BRONCHIOLAR ADENOMA, CARCINOMA, HEMATOPOIETIC SYSTEM (LEUKEMIA), LYMPHATIC SYSTEM: LYMPHOMA, MYOCARDIUM:): active; positive
- carcinogen call (Species: RAT, Strain/Sex: SPRAGUE-DAWLEY/FEMALE, Route: GAVAGE, Dose: 0, 5, 10 MG/KG 3/WK FOR 52 WKS (STUDY DURATION: 84-85 WK), Dose: 0, 5, 10 MG/KG 3/WK FOR 52 WKS (STUDY DURATION: 84-85 WK), Tumor Site: Type of Lesion: MAMMARY GLAND: ADENOCARCINOMA, FIBROADENOMA): active; positive
- carcinogen call (Species: RAT, Strain/Sex: SPRAGUE-DAWLEY/MALE, Route: GAVAGE, Dose: 0, 5, 10 MG/KG 3/WK FOR 52 WK (STUDY DURATION: 84-85 WK), Dose: 0, 5, 10 MG/KG 3/WK FOR 52 WK (STUDY DURATION: 84-85 WK)): inactive; negative

Compound: Cl
- carcinogen call (Species: RAT, Strain/Sex: F344/MALE, Route: ORAL, Dose: 0, 0.25, 1, 4% IN DIET FOR 2 YR (STUDY DURATION: 2 YR), Dose: 0, 0.25, 1, 4% IN DIET FOR 2 YR (STUDY DURATION: 2 YR)): inactive; negative

Compound: CC(Cl)(Cl)Cl
- carcinogen call (Species: MOUSE, Strain/Sex: B6C3F1/FEMALE, Route: INHALATION, Dose: 0, 150, 500, 1500 PPM IN AIR 6 HR/D 5 D/WK FOR 24 MO (STUDY DURATION: 24 MO), Dose: 0, 150, 500, 1500 PPM IN AIR 6 HR/D 5 D/WK FOR 24 MO (STUDY DURATION: 24 MO)): inactive; negative
- carcinogen call (Species: MOUSE, Strain/Sex: B6C3F1/MALE, Route: INHALATION, Dose: 0, 150, 500, 1500 PPM IN AIR 6 HR/D 5 D/WK FOR 24 MO (STUDY DURATION: 24 MO), Dose: 0, 150, 500, 1500 PPM IN AIR 6 HR/D 5 D/WK FOR 24 MO (STUDY DURATION: 24 MO)): inactive; negative
- carcinogen call (Species: RAT, Strain/Sex: F344/FEMALE, Route: INHALATION, Dose: 0, 150, 500, 1500 PPM IN AIR 6 HR/D 5 D/WK FOR 24 MO (STUDY DURATION: 24 MO), Dose: 0, 150, 500, 1500 PPM IN AIR 6 HR/D 5 D/WK FOR 24 MO (STUDY DURATION: 24 MO)): inactive; negative
- carcinogen call (Species: RAT, Strain/Sex: F344/MALE, Route: INHALATION, Dose: 0, 150, 500, 1500 PPM IN AIR 6 HR/D 5 D/WK FOR 24 MO (STUDY DURATION: 24 MO), Dose: 0, 150, 500, 1500 PPM IN AIR 6 HR/D 5 D/WK FOR 24 MO (STUDY DURATION: 24 MO)): inactive; negative

Compound: CCCCCCC(=O)O[C@H]1CC[C@H]2[C@@H]3CCC4=CC(=O)CC[C@]4(C)[C@H]3CC[C@]12C
- carcinogen call (Species: RAT, Strain/Sex: WISTAR/FEMALE, Route: INTRAMUSCULAR, Dose: 0, 12.5 MG 1/WK FOR 24 WK (STUDY DURATION: 24 WK), Tumor Site: Type of Lesion: BLADDER: PAPILLOMA OR CARCINOMA): active; positive
- carcinogen call (Species: RAT, Strain/Sex: WISTAR/FEMALE, Route: INTRAMUSCULAR, Dose: 0, 12.5 MG 1/WK FOR 24 WK ADMINISTERED TO OOPHORECTOMIZED RATS (STUDY DURATION: 24 WK)): inactive; negative

Compound: CC(=O)OCN(CC(C)C)N=O
- carcinogen call (Species: RAT, Strain/Sex: F344/FEMALE, Route: SUBCUTANEOUS, Dose: 6.6 MG/KG 1/WK FOR 10 WK, Tumor Site: Type of Lesion: INJECTION SITE: MALIGNANT FIBROUS HISTIOCYTOMA): active; positive

Compound: O=c1cc(CO)occ1O
- carcinogen call (Species: MOUSE, Strain/Sex: B6C3F1/FEMALE, Route: ORAL, Dose: 0, 1.5, 3% IN DIET FOR 20 MONTHS (STUDY DURATION: 20 MONTHS), Dose: 0, 1.5, 3% IN DIET FOR 20 MONTHS (STUDY DURATION: 20 MONTHS), Tumor Site: Type of Lesion: THYROID: ADENOMA. LIVER: HEPATOMA): active; positive
- carcinogen call (Species: MOUSE, Strain/Sex: B6C3F1/MALE, Route: ORAL, Dose: 0, 1.5, 3% IN DIET FOR 20 MONTHS (STUDY DURATION: 20 MONTHS), Dose: 0, 1.5, 3% IN DIET FOR 20 MONTHS (STUDY DURATION: 20 MONTHS), Tumor Site: Type of Lesion: THYROID: ADENOMA): active; positive
- carcinogen call (Species: Rat, Strain/Sex: F344/Male (20/experimental group (10 killed at 31 wk & 10 killed at 44 wk); 15/controls), Route: Oral, Dose: Kojic acid at 2.0% in drinking water for 31 wk, recovery for 13 wk, study duration 44 wk, Dose: Kojic acid at 2.0% in drinking water for 31 wk, recovery for 13 wk, study duration 44 wk, Tumor Site: Type of Lesion: Thyroid: 1 adenoma at 44 wk): inactive; negative (however, significantly greater increase in thyroid follicular cell hyp

Compound: C=CBr
- carcinogen call (Species: RAT, Strain/Sex: SPRAGUE-DAWLEY/FEMALE, Route: INHALATION, Dose: 10, 50, 250, 1250 PPM 6 HR/D 5/WK FOR 24 MO, Dose: 10, 50, 250, 1250 PPM 6 HR/D 5/WK FOR 24 MO, Tumor Site: Type of Lesion: LIVER: ANGIOSARCOMA, EAR (ZYMBAL GLAND): SQUAMOUS CELL CARCINOMA): active; positive
- carcinogen call (Species: RAT, Strain/Sex: SPRAGUE-DAWLEY/MALE, Route: INHALATION, Dose: 10, 50, 250, 1250 PPM 6 HR/D 5/WK FOR 24 MO, Dose: 10, 50, 250, 1250 PPM 6 HR/D 5/WK FOR 24 MO, Tumor Site: Type of Lesion: LIVER: ANGIOSARCOMA, EAR (ZYMBAL GLAND): PAPILLOMA, SQUAMOUS CELL CARCINOMA): active; positive
